Experimental data published in patent US6498181B1, “Synergistic tumorcidal response induced by histamine” (Maxim Pharmaceuticals, priority 1999, dated 2002).
Where two headings read alike, the source gives them in different places.

How the values were obtained:
[1] = Description: Five patients suffering from acute myleogenous leukemia (AML) in remission received treatment with histamine dihydrochloride diluted in sterile sodium chloride. Histamine was administered morning and night at separate subcutaneous injection sites over a period of 21 consecutive days. The histamine was given as subcutaneous injections using 1 ml syringes containing […] of histamine per ml. The histamine treatment was given twice daily (morning and night) at a dosage of 0.4 to 0.7 mg histamine per injection (i.e., a daily total dose of histamine of 0.8 to 1.4 mg per day).
Peripheral blood venous samples were drawn in 10 ml heparinized test tubes before the onset of treatment and weekly thereafter. The samples were drawn at least 8 hours after the last injections of histamine. The concentration of histamine in the whole blood samples was analyzed by the use of a double antibody radioimmunoassay kit obtained from Bionerica, Inc., Newport Beach, Calif. 92663 (catalog number 1051). The manufacturer's instructions provided with the kit, dated June, 1989, were followed. Blood histamine levels were measured at the indicated times.

prostate tumor [2] = settings: histamine s.c. 0.5-2.0 mg per day one week before surgery, blood histamine kept at at least about 0.2 μM after
Description: Accordingly, a pharmaceutically acceptable form of histamine in a sterile carrier solution is injected subcutaneously into a patient suffering from prostate cancer for one week (0.5-2.0 mg per day) prior to surgery.
Once the tumor is removed, circulating levels of blood histamine are maintained at at least about 0.2 μM until a complete response is observed. The tumorcidal response is evaluated by determining the level of PSA antigen in the patient over time according to conventional methods.

prostate tumor [3] = settings: histamine s.c. 0.5-2.0 mg per day one week before external beam radiation (60-70 Gy), continued after
Description: The tumorcidal response is evaluated by determining the level of PSA antigen in the patient over time according to conventional methods.

breast cancer = settings: histamine s.c. 0.5-1.0 mg per injection 1-2 times per day with humanized 131I labeled p185^HER-2 antibody
Description: Accordingly, a pharmaceutically acceptable form of histamine in a sterile carrier solution is injected subcutaneously into the patient for one week (0.5-1.0 mg per injection 1-2 times per day) prior to antibody therapy.
The tumorcidal response is evaluated by determining the level of p185^HER-2 receptor in the patient over time according to conventional methods. (Quak and van Dongen, Eur. Arch. Otorhinolaryngol 251:1-5(1994)).

melanoma = settings: histamine s.c. 0.5-1.0 mg per injection 1-2 times per day with vaccine of killed mixture of three melanomic cell lines
Text: (Quak and van Dongen, Eur. Arch. Otorhinolaryngol 251:1-5(1994)).

[4] = system: human SK-N-SH neuroblastoma xenografts; settings: histamine 0.5 mg per day tail vein with 10 μCi 131I labeled BW575/9 mAb, versus BW575/9 by itself
[5] = Effect of duration of histamine administration on efficacy and side effects; settings: administered over less than 1 to 3 minutes; anaphalaxis, heart failure, broncospasm, flushing, headache etc.
[6] = system: follicular non-Hodgkins lymphoma; settings: cited from earlier work

Row | Molecule | persistence of circulating blood histamine levels ([1]; even after histamine administration was discontinued) | circulating blood histamine concentration following histamine administration ([1]; five AML patients in remission, s.c. 0.4 to 0.7 mg per injection twice daily, 21 days, samples at least 8 hours after last injection, less than 0.2 μM at start) | tumorcidal response (PSA antigen level over time) (prostate tumor [2]) | tumorcidal response (PSA antigen level over time) (prostate tumor [3]) | tumorcidal response (p185^HER-2 receptor level over time) (breast cancer) | tumorcidal response (presence of melanoma over time) (melanoma) | tumorcidal response [4] | side effects on rapid administration [5] | treatment outcome in clinical trials [6]
1 | NCCc1c[nH]cn1 [histamine] | remained elevated for sustained periods of time | at least 0.2 μM | synergistic tumorcidal response is observed | synergistic tumorcidal response is observed | synergistic tumorcidal response is observed | synergistic tumorcidal response is observed | greater tumorcidal response | more pronounced and serious sides effects | –
2 | ^131I labeled anti-B1 (Bexxar) mAb: 131I radiolabeled mAb raised to the CD-20 antigens expressed on the surface of mature B-cells | – | – | – | – | – | – | – | – | successful in treating follicular non-Hodgkins lymphoma
